Reference: patent publication US12110293B2, “Substituted triazolo quinoxaline derivatives” (GRÜNENTHAL GMBH, priority 2018, dated 2024)

Molecular target: T1, glucocorticoid receptor (Homo sapiens, UniProt P04150)
T1 construct: expressed in transfected cells
T1 sequence (P04150 524-758 limits assumed): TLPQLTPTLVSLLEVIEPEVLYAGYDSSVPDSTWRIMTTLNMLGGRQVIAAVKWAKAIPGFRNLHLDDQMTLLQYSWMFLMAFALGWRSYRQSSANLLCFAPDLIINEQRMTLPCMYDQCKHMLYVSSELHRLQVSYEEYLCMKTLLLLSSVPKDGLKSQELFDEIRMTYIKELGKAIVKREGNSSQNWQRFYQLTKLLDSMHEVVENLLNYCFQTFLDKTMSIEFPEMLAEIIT
Assay: Agonistic mode of action on the glucocorticoid receptor (CHO-Gal4/GR luciferase reporter cell line)
Format: cell-based
Details: range class observed in the agonistic assay or the antagonistic assay (CHO-Gal4/GR reporter cells); table does not say which mode applies per example
How it was run: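 CHO cells stably carrying GAL4 DBD–GR ligand-binding-domain fusion and GAL4-UAS firefly luciferase reporter, 5000 cells/well grown 24 h, then compounds added in Opti-MEM at 8 half-log concentrations from 10 μM to 0.003 μM (0.5% DMSO), quadruplicates. Agonist-induced luminescence read on FLIPR Tetra; EC50 calculated.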

Cc1nnc2n1-c1c(cc(F)c(-c3ccc(F)c4[nH]ccc34)c1F)NC2(C)C [Example 497, 7,9-Difluoro-8-(7-fluoro-1H-indol-4-yl)-1,4,4-trimethyl-5H-[1,2,4]triazolo[4,3-a]quinoxaline]
IC50 or EC50 (agonist or antagonist mode not specified): 100 to 1000 nM

COc1cc2c(c(C)c1-c1cc(F)cc3c(C)c[nH]c13)-n1c(C)nnc1C(C)(C)N2 [Example 345, 8-(5-Fluoro-3-methyl-1H-indol-7-yl)-7-methoxy-1,4,4,9-tetramethyl-5H-[1,2,4]triazolo[4,3-a]quinoxaline]
IC50 or EC50 (agonist or antagonist mode not specified): 100 to 1000 nM

CC#Cc1c[nH]c2c(-c3c(F)cc4c(c3C)-n3c(C(C)O)nnc3C(C)(C)N4)cc(F)cc12 (stereo not drawn) [Example 78]
IC50 or EC50 (agonist or antagonist mode not specified): 1000 to 15000 nM

Cc1nnc2n1-c1c(cc(OC(F)F)c(-c3cc(F)cc4c3ccn4S(C)(=O)=O)c1F)NC2(C)C [Example 268, 7-(Difluoro-methoxy)-9-fluoro-8-(6-fluoro-1-methylsulfonyl-1H-indol-4-yl)-1,4,4-trimethyl-5H-[1,2,4]triazolo[4,3-a]quinoxaline]
IC50 or EC50 (agonist or antagonist mode not specified): 1000 to 15000 nM

COc1c(-c2cc(C)cc3c2ccn3S(C)(=O)=O)c(F)cc2c1-n1c(C)nnc1C(C)(C)N2 [Example 477, 7-Fluoro-9-methoxy-1,4,4-trimethyl-8-(6-methyl-1-methylsulfonyl-1H-indol-4-yl)-5H-[1,2,4]triazolo[4,3-a]quinoxaline]
IC50 or EC50 (agonist or antagonist mode not specified): 100 to 1000 nM

Cc1c(-c2cccc3c2ccn3CC(F)F)c(Cl)cc2c1-n1c(C)nnc1C(C)(C)N2 [Example 327, 7-Chloro-8-[1-(2,2-difluoro-ethyl)-1H-indol-4-yl]-1,4,4,9-tetramethyl-5H-[1,2,4]triazolo[4,3-a]quinoxaline]
IC50 or EC50 (agonist or antagonist mode not specified): 100 to 1000 nM

Cc1nnc2n1-c1c(cc(F)c(-c3cc(F)cc4c3cnn4CCO)c1C(F)(F)F)NC2(C)C [Example 449, 2-[6-Fluoro-4-[7-fluoro-1,4,4-trimethyl-9-(trifluoromethyl)-5H-[1,2,4]triazolo[4,3-a]quinoxalin-8-yl]-1H-indazol-1-yl]-ethanol]
IC50 or EC50 (agonist or antagonist mode not specified): < 100 nM

COCCn1ncc2c(-c3c(F)cc4c(c3F)-n3c(C)nnc3C(C)(C)N4)cccc21 [Example 233, 7,9-Difluoro-8-[1-(2-methoxy-ethyl)-1H-indazol-4-yl]-1,4,4-trimethyl-5H-[1,2,4]triazolo[4,3-a]quinoxaline]
IC50 or EC50 (agonist or antagonist mode not specified): 100 to 1000 nM

Cc1c[nH]c2c(-c3c(F)cc4c(c3F)-n3c(Cc5ccccc5)nnc3C(C)(C)N4)cc(F)cc12 [Example 67, 1-Benzyl-7,9-difluoro-8-(5-fluoro-3-methyl-1H-indol-7-yl)-4,4-dimethyl-5H-[1,2,4]triazolo[4,3-a]quinoxaline]
IC50 or EC50 (agonist or antagonist mode not specified): 1000 to 15000 nM

Cc1cc2c(c(F)c1-c1cccc3c1ccn3CC(F)F)-n1c(C)nnc1C(C)(C)N2 [Example 392, 8-[1-(2,2-Difluoro-ethyl)-1H-indol-4-yl]-9-fluoro-1,4,4,7-tetramethyl-5H-[1,2,4]triazolo[4,3-a]quinoxaline]
IC50 or EC50 (agonist or antagonist mode not specified): 1000 to 15000 nM

Cc1nnc2n1-c1c(cc(F)c(-c3cccc4c3ccn4S(C)(=O)=O)c1C1CC1)NC2(C)C [Example 462, 9-Cyclopropyl-7-fluoro-1,4,4-trimethyl-8-(1-methylsulfonyl-1H-indol-4-yl)-5H-[1,2,4]triazolo [4,3-a]quinoxaline]
IC50 or EC50 (agonist or antagonist mode not specified): < 100 nM

CCc1nnc2n1-c1c(cc(F)c(-c3c(F)ccc4[nH]ccc34)c1C)NC2(C)C [Example 244, 1-Ethyl-7-fluoro-8-(5-fluoro-1H-indol-4-yl)-4,4,9-trimethyl-5H-[1,2,4]triazolo[4,3-a]quinoxaline]
IC50 or EC50 (agonist or antagonist mode not specified): 1000 to 15000 nM

COc1cc2c(c(C(F)(F)F)c1-c1cc(F)cc3c(C)c[nH]c13)-n1c(C)nnc1C(C)(C)N2 [Example 407, 8-(5-Fluoro-3-methyl-1H-indol-7-yl)-7-methoxy-1,4,4-trimethyl-9-(trifluoromethyl)-5H-[1,2,4]triazolo[4,3-a]quinoxaline]
IC50 or EC50 (agonist or antagonist mode not specified): < 100 nM

Cc1nnc2n1-c1c(cc(F)c(-c3cccc4nn(C)cc34)c1F)NC2(C)C [Example 222, 7,9-Difluoro-1,4,4-trimethyl-8-(2-methyl-2H-indazol-4-yl)-5H-[1,2,4]triazolo[4,3-a]quinoxaline]
IC50 or EC50 (agonist or antagonist mode not specified): 1000 to 15000 nM

Cc1nnc2n1-c1c(cc(F)c(-c3cc(F)cc4[nH]ccc34)c1F)NC2(C)C [Example 1, 7,9-difluoro-8-(6-fluoro-1H-indol-4-yl)-1,4,4-trimethyl-4,5-dihydro-[1,2,4]triazolo[4,3-a]quinoxaline]
IC50 or EC50 (agonist or antagonist mode not specified): < 100 nM

CCc1nnc2n1-c1c(cc(F)c(-c3cc(F)cc4c3ccn4CC3CC3)c1C)NC2(C)C [Example 35, 8-(1-(cyclopropylmethyl)-6-fluoro-1H-indol-4-yl)-1-ethyl-7-fluoro-4,4,9-trimethyl-4,5-dihydro-[1,2,4]triazolo[4,3-a]quinoxaline]
IC50 or EC50 (agonist or antagonist mode not specified): 100 to 1000 nM

Cc1cc2c(-c3c(F)cc4c(c3F)-n3c(C)nnc3C(C)(C)N4)cc(F)cc2[nH]1 [Example 5, 7,9-difluoro-8-(6-fluoro-2-methyl-1H-indol-4-yl)-1,4,4-trimethyl-4,5-dihydro-[1,2,4]triazolo[4,3-a]quinoxaline]
IC50 or EC50 (agonist or antagonist mode not specified): 100 to 1000 nM

Cc1nnc2n1-c1c(cc(F)c(-c3cccc4c3ccn4S(=O)(=O)C3CC3)c1F)NC2(C)C [Example 205, 8-[1-(Cyclopropylsulfonyl)-1H-indol-4-yl]-7,9-difluoro-1,4,4-trimethyl-5H-[1,2,4]triazolo[4,3-a]quinoxaline]
IC50 or EC50 (agonist or antagonist mode not specified): 100 to 1000 nM

Cc1nnc2n1-c1c(cc(F)c(-c3cc(C(F)(F)F)cc4[nH]ccc34)c1C(F)(F)F)NC2(C)C [Example 473, 7-Fluoro-1,4,4-trimethyl-9-(trifluoromethyl)-8-[6-(trifluoromethyl)-1H-indol-4-yl]-5H-[1,2,4]triazolo[4,3-a] quinoxaline]
IC50 or EC50 (agonist or antagonist mode not specified): 100 to 1000 nM

Cc1c(-c2cc(F)cc3c2ccn3S(C)(=O)=O)c(C(F)(F)F)cc2c1-n1c(C)nnc1C(C)(C)N2 [Example 83, 8-(6-Fluoro-1-methylsulfonyl-1H-indol-4-yl)-1,4,4,9-tetramethyl-7-(trifluoromethyl)-5H-[1,2,4]triazolo[4,3-a]quinoxaline]
IC50 or EC50 (agonist or antagonist mode not specified): 1000 to 15000 nM

Cc1nnc2n1-c1c(cc(F)c(-c3cc(F)cc4c3cnn4CC(F)F)c1F)NC2(C)C [Example 489, 8-[1-(2,2-Difluoro-ethyl)-6-fluoro-1H-indazol-4-yl]-7,9-difluoro-1,4,4-trimethyl-5H-[1,2,4]triazolo [4,3-a]quinoxaline]
IC50 or EC50 (agonist or antagonist mode not specified): < 100 nM

Cc1c(-c2cccc3c2ccn3S(C)(=O)=O)c(OC(F)F)cc2c1-n1c(C)nnc1C(C)(C)N2 [Example 318, 7-(Difluoro-methoxy)-1,4,4,9-tetramethyl-8-(1-methylsulfonyl-1H-indol-4-yl)-5H-[1,2,4]triazolo[4,3-a]quinoxaline]
IC50 or EC50 (agonist or antagonist mode not specified): 100 to 1000 nM

CCc1nnc2n1-c1c(cc(F)c(-c3cc(C)cc4c(C#N)c[nH]c34)c1F)NC2(C)C [Example 17, 7-(1-ethyl-7,9-difluoro-4,4-dimethyl-4,5-dihydro-[1,2,4]triazolo[4,3-a]quinoxalin-8-yl)-5-methyl-1H-indole-3-carbonitrile]
IC50 or EC50 (agonist or antagonist mode not specified): 100 to 1000 nM

COc1cc2c(c(F)c1-c1cccc3[nH]c(C(F)(F)F)cc13)-n1c(C)nnc1C(C)(C)N2 [Example 257, 9-Fluoro-7-methoxy-1,4,4-trimethyl-8-[2-(trifluoromethyl)-1H-indol-4-yl]-5H-[1,2,4]triazolo[4,3-a]quinoxaline]
IC50 or EC50 (agonist or antagonist mode not specified): 100 to 1000 nM

COc1c(-c2cccc3c2cnn3C)c(F)cc2c1-n1c(C)nnc1C(C)(C)N2 [Example 264, 7-Fluoro-9-methoxy-1,4,4-trimethyl-8-(1-methyl-1H-indazol-4-yl)-5H-[1,2,4]triazolo[4,3-a]quinoxaline]
IC50 or EC50 (agonist or antagonist mode not specified): 100 to 1000 nM

Cc1c(-c2cccc3c2cnn3S(C)(=O)=O)ccc2c1-n1c(C)nnc1C(C)(C)N2 [Example 457, 1,4,4,9-Tetramethyl-8-(1-methylsulfonyl-1H-indazol-4-yl)-5H-[1,2,4]triazolo[4,3-a] quinoxaline]
IC50 or EC50 (agonist or antagonist mode not specified): 100 to 1000 nM

Cc1c(-c2cccc3c2ccn3C2CC2)c(Cl)cc2c1-n1c(C)nnc1C(C)(C)N2 [Example 533, 7-Chloro-8-(1-cyclopropyl-1H-indol-4-yl)-1,4,4,9-tetramethyl-5H-[1,2,4]triazolo[4,3-a] quinoxaline]
IC50 or EC50 (agonist or antagonist mode not specified): < 100 nM

Cc1cc(-c2c(F)cc3c(c2C(F)(F)F)-n2c(C)nnc2C(C)(C)N3)c2ccn(S(C)(=O)=O)c2c1 [Example 476, 7-Fluoro-1,4,4-trimethyl-8-(6-methyl-1-methylsulfonyl-1H-indol-4-yl)-9-(trifluoromethyl)-5H-[1,2,4]triazolo [4,3-a]quinoxaline]
IC50 or EC50 (agonist or antagonist mode not specified): 100 to 1000 nM

CCc1c(-c2cc(F)cc3c2cnn3CCO)c(F)cc2c1-n1c(C)nnc1C(C)(C)N2 [Example 45, 2-[4-(9-Ethyl-7-fluoro-1,4,4-trimethyl-5H-[1,2,4]triazolo[4,3-a]quinoxalin-8-yl)-6-fluoro-1H-indazol-1-yl]-ethanol]
IC50 or EC50 (agonist or antagonist mode not specified): 100 to 1000 nM

CCc1c(-c2cc(F)cc3c2cnn3S(C)(=O)=O)c(F)cc2c1-n1c(C)nnc1C(C)(C)N2 [Example 52, 9-Ethyl-7-fluoro-8-(6-fluoro-1-methylsulfonyl-1H-indazol-4-yl)-1,4,4-trimethyl-5H-[1,2,4]triazolo[4,3-a]quinoxaline]
IC50 or EC50 (agonist or antagonist mode not specified): < 100 nM
